Data published in US20130072459A1, “PHARMACEUTICAL COMPOSITION FOR THE PREVENTION OR THE TREATMENT OF NON-ALCOHOLIC FATTY LIVER DISEASE AND THE METHOD FOR PREVENTION OR TREATMENT OF NON-ALCOHOLIC FATTY LIVER DISEASE USING THE SAME” (priority 2010, published 2013).

What was measured:
[1] = system: high fat diet-induced simple steatosis; experiment: Preventive effects on high fat diet-induced simple steatosis in mice (drug-mixed diet, 8/16/24 weeks); format: in vivo, C57BL/6 mice; details: for serum alanine aminotransferase (ALT), result in words: at 16 weeks and 24 weeks; for serum alanine aminotransferase (ALT), result in words / hepatic triglyceride content, result in words: vs high fat diet-fed group; for hepatic triglyceride content, result in words: hepatic triglyceride analysis and histological analysis
Experimental: 6-week old male C57BL/6 mice were stabilized and then divided into 5 groups. One group was given a standard diet containing 10% fat (trade name: D12450B, manufactured by Research Diets), and one group was given a high fat diet containing 60% fat (trade name: D12492, manufactured by Research Diets). Remaining 3 groups as drug-treated groups were given a drug-mixed diet specially formulated by mixing a high fat diet and a drug. With regard to tartrate of Compound 1, in order to supply 100 mg/kg and 300 mg/kg which are daily target doses of tartrate of Compound 1 based on the daily average high fat diet consumption amount, diets were formulated by mixing a high fat diet and 0.2% by weight and 0.5% by weight of tartrate of Compound 1, respectively. With regard to sitagliptin phosphate, in order to supply 300 mg/kg which is a daily target dose based on the daily average high fat diet consumption amount, a diet was formulated by mixing a high fat diet and about 0.5% by weight of sitagliptin phosphate. Individual drug-treated groups were given the drug-mixed diets thus formulated. 8 weeks, 16 weeks, and 24 weeks after a supply of each diet, animals were dissected and sera were separated. Then, serum ALT levels (alanine aminotransferase, GPT, glutamic pyruvate transaminase) were measured using a blood analyzer (Table 1 and FIG. 1). The excised liver was homogenized in a 5(v/v) % Triton-X solution, and a triglyceride working reagent [which was prepared by mixing a free glycerol reagent (F6428, Sigma) and a triglyceride reagent (T2449, Sigma) in a ratio of 4:1(v/v)] was added thereto, followed by measurement of an absorbance at 540 nm to determine the content of triglyceride (Table 1 and FIG. 2). In addition, in order to observe histological fat distribution, a portion of the excised liver was fixed in a 10(v/v) % formalin solution and then a tissue sample was prepared, followed by hematoxylin & eosin staining and photographing using an image analysis program (computerized image analysis) (FIG. 3, the violet-stained portion represents a normal liver tissue, and white-stained portion represents lipid droplets).

[2] = system: high fat diet-induced simple steatosis; experiment: Non-alcoholic fatty liver-preventing effects on high fat diet-induced simple steatosis in mice (oral, 28 days); format: in vivo, C57BL/6 mice; details: for Triglyceride increase inhibition (%) relative to high fat diet-fed group / Triglyceride increment (%) relative to standard diet-fed group: 28 days, high fat diet; for lipid droplets in liver tissue sample (histological evaluation), result in words: HE staining, FIG. 8; for maximum decrement of the hepatic triglyceride content relative to the high fat diet-fed group: maximum over the doses tested
Experimental: 7-week old male C57BL/6 mice were stabilized and then divided into 9 groups (n=9) according to the body weight and blood glucose level. A standard diet-fed group and a high fat diet-fed group were orally administered a vehicle solution (0.5% MC (methylene cellulose)) of each diet once a day at a dose of 10 ml/kg, and the remaining groups were orally given once a day for 28 days a high fat diet in conjunction with tartrate of Compound 1 at doses of 30, 100 and 300 mg/kg, sitagliptin phosphate at doses of 100 and 300 mg/kg, and vildagliptin at doses of 100 mg/kg and 300 mg/kg, respectively, according to the designated groups. 24 hours after the final oral administration, animals were dissected and the excised liver was homogenized in a 5(v/v) % Triton-X solution to which a triglyceride working reagent was then added, followed by measurement of an absorbance at 540 nm to determine the content of triglyceride (Table 2). In addition, a portion of the excised liver was fixed in a 10(v/v) % formalin solution and then a tissue sample was prepared, followed by hematoxylin & eosin(HE) staining and photographing (FIG. 8).

[3] = system: activated hepatic stellate cells; experiment: Expression of activity indicator proteins (TGFβ1, α-SMA) in activated hepatic stellate cells, Western blot; format: cell-based, rat (Wistar); details: for 1 ng/mL TGFβ1-induced protein expression inhibition rate, TGFβ1 / 1 ng/mL TGFβ1-induced protein expression inhibition rate, α-SMA: 100 μM compound, 7 days, N = 3, corrected by β-actin; for protein expression levels of TGFβ1 and α-SMA, result in words: hTGF-β1-activated rat hepatic stellate cells
Experimental: An inhibitory action of the compounds of the present invention on the activation of hepatic stellate cells was tested according to the following cell culture method. Male rats (Wistar rats), weighing 500 to 700 g, were anesthetized, followed by an abdominal incision, and cannulae were connected to hepatic portal veins, followed by sequential perfusion with a Hank's Balanced Salt Solution (HBSS) containing heparin and an HBSS containing type 1 collagenase. After the perfusion was complete, the liver was excised, ground with surgical scissors, and added to an HBSS containing type 1 collagenase, followed by shaking culture at 37° C. for 15 minutes. The completely ground liquid-state liver tissue was passed through gauze and centrifuged at 500 g for 10 minutes. The resulting mingled cell precipitate was washed with a phosphate buffer, followed by centrifugation at 100 g for 5 minutes, and the supernatant was collected. The supernatant was further centrifuged at 500 g for 10 minutes to obtain a precipitate to which a 9:1 (v/v) mixture of a Ficoll liquid (GE Healthcare) and a Percoll liquid (GE Healthcare) was added, followed by mixing. A phosphate buffer was gently placed on the mixed layer, followed by centrifugation at 1,400 g for 15 minutes. Then, the cell layer formed between the upper layer and the lower layer was recovered and washed once with a Dulbecco's Modified Eagle Medium (DMEM) containing 10(v/v) % fetal bovine serum. The resulting cells were added at a cell density of 3.1×10^5 cells/cm^2, the medium was exchanged with a fresh medium after 24 hours, and cultured for 7 days with exchange of the medium at intervals of 2 to 3 days. Then, the drugs were treated at specified concentrations in a medium containing 1 ng/ml of a human transforming growth factor (TGF) β1 and a medium containing no TGF β1. TGF β1 was dissolved in dimethylsulfoxide (DMSO) to a concentration 1.000-fold higher than the desired treatment concentration of the drug, 1.000-fold diluted in a medium to be a 1-fold (1×) volume, and then treated on cells. After 7 days of the drug treatment, the medium was harvested and washed with a phosphate buffer. A buffer containing a surfactant was added thereto and the cells were lysed. Then, proteins were quantified, electrophoresed on a 4-12% Bis-Tris gel (Invitrogen), and transferred to a nitrocellulose membrane. The transferred proteins were reacted with primary antibodies specific for α-smooth muscle actin (α-SMA) or TGFβ1, and then reacted with horse radish peroxidase-conjugated specific secondary antibodies. The expression level of the target protein was confirmed using a chemiluminescent liquid and corrected in terms of actin (β-actin) expression level (FIG. 9). The decrement of observed protein expression by 100 μM of individual compounds of the present invention was expressed as a percentage drug-induced decrement, based an increment of protein expression in the TGFβ1-treated positive control group relative to the negative control group to which only DMSO was added (Table 3).

[4] = 8 weeks, high fat diet + 0.5% drug (target 300 mg/kg/day)
[5] = 16 weeks, high fat diet + 0.5% drug (target 300 mg/kg/day)
[6] = 24 weeks, high fat diet + 0.5% drug (target 300 mg/kg/day)
[7] = 8 weeks, high fat diet + 0.2% drug (target 100 mg/kg/day)
[8] = 16 weeks, high fat diet + 0.2% drug (target 100 mg/kg/day)
[9] = 24 weeks, high fat diet + 0.2% drug (target 100 mg/kg/day)

N[C@@H](CC(=O)N1CCn2c(nnc2C(F)(F)F)C1)Cc1cc(F)c(F)cc1F [sitagliptin phosphate, sitagliptin]
Hepatic TG [1, 4]: 11.8 ± 2.7 mg/g wet liver
Plasma ALT [1, 4]: 26.5 ± 1.8 U/L
Hepatic TG [1, 5]: 10.0 ± 1.2 mg/g wet liver
Plasma ALT [1, 5]: 22.2 ± 1.3 U/L
Hepatic TG [1, 6]: 36.8 ± 6.6 mg/g wet liver
Plasma ALT [1, 6]: 27.0 ± 1.7 U/L
serum alanine aminotransferase (ALT), result in words [1]: significant decreases
hepatic triglyceride content, result in words [1]: significant decrease
Triglyceride increase inhibition (%) relative to high fat diet-fed group ([2]; 100 mg/kg oral once a day): 61%
Triglyceride increment (%) relative to standard diet-fed group ([2]; 100 mg/kg oral once a day): 21%
Triglyceride increase inhibition (%) relative to high fat diet-fed group ([2]; 300 mg/kg oral once a day): 15%
Triglyceride increment (%) relative to standard diet-fed group ([2]; 300 mg/kg oral once a day): 45%
lipid droplets in liver tissue sample (histological evaluation), result in words [2]: reduction of lipid droplets
maximum decrement of the hepatic triglyceride content relative to the high fat diet-fed group [2]: 61%
1 ng/mL TGFβ1-induced protein expression inhibition rate, TGFβ1 [3]: −6 ± 51.9%
1 ng/mL TGFβ1-induced protein expression inhibition rate, α-SMA [3]: 46 ± 7.3%
protein expression levels of TGFβ1 and α-SMA, result in words [3]: lowered

CC(C)(C)OC[C@@H]1C(=O)NCCN1C(=O)C[C@H](N)Cc1cc(F)c(F)cc1F [tartrate of Compound 1, (R)-4-[(R)-3-amino-4-(2,4,5-trifluorophenyl)-butanoyl]-3-(t-butoxymethyl)piperazin-2-one]
Hepatic TG [1, 7]: 15.5 ± 2.0 mg/g wet liver
Plasma ALT [1, 7]: 20.6 ± 0.9 U/L
Hepatic TG [1, 4]: 7.4 ± 2.0 mg/g wet liver
Plasma ALT [1, 4]: 39.3 ± 3.6 U/L
Hepatic TG [1, 8]: 21.5 ± 0.7 mg/g wet liver
Plasma ALT [1, 8]: 20.5 ± 1.2 U/L
Hepatic TG [1, 5]: 15.8 ± 2.0 mg/g wet liver
Plasma ALT [1, 5]: 27.5 ± 1.5 U/L
Hepatic TG [1, 9]: 38.2 ± 5.8 mg/g wet liver
Plasma ALT [1, 9]: 37.5 ± 4.2 U/L
Hepatic TG [1, 6]: 15.1 ± 3.5 mg/g wet liver
Plasma ALT [1, 6]: 43.8 ± 4.3 U/L
serum alanine aminotransferase (ALT), result in words [1]: significant decreases
hepatic triglyceride content, result in words [1]: significant decrease
Triglyceride increase inhibition (%) relative to high fat diet-fed group ([2]; 30 mg/kg oral once a day): 34%
Triglyceride increment (%) relative to standard diet-fed group ([2]; 30 mg/kg oral once a day): 35%
Triglyceride increase inhibition (%) relative to high fat diet-fed group ([2]; 100 mg/kg oral once a day): 12%
Triglyceride increment (%) relative to standard diet-fed group ([2]; 100 mg/kg oral once a day): 47%
Triglyceride increase inhibition (%) relative to high fat diet-fed group ([2]; 300 mg/kg oral once a day): 81%
Triglyceride increment (%) relative to standard diet-fed group ([2]; 300 mg/kg oral once a day): 11%
lipid droplets in liver tissue sample (histological evaluation), result in words [2]: reduction of lipid droplets
maximum decrement of the hepatic triglyceride content relative to the high fat diet-fed group [2]: 81%
1 ng/mL TGFβ1-induced protein expression inhibition rate, TGFβ1 [3]: 78 ± 17.2%
1 ng/mL TGFβ1-induced protein expression inhibition rate, α-SMA [3]: 25 ± 1.9%
concentration dependence of protein expression decrement of TGFβ1 and α-SMA, result in words ([3]; FIG. 9): increased with a higher concentration
protein expression levels of TGFβ1 and α-SMA, result in words [3]: lowered
